Bridge positions count the residues as written; N and C are the ends. Peptide text beside a SMILES is read from it.
What follows are compounds tested against T1, rabbit skeletal RyR1 (native RyR1 in HSR) (Oryctolagus cuniculus, UniProt P11716) (assay: Planar lipid bilayer single-channel recording, native RyR1 in HSR). Conditions: native RyR1 in SR, toxin cis, 6-100 nM, -30 mV, [Ca^2+]free 10 μM, pH 7.2, Hill fit, means ± SE of 3–9 experiments; read-out: EC50 for Psubstate.
T1 construct: tested using native RyR1 in rabbit skeletal HSR; from tissue; host or cells: rabbit fast-twitch back and leg muscles (heavy SR vesicles)
Type: biochemical
Experimental: A heavy fraction of fragmented SR vesicles (HSR) containing junctional SR was prepared from rabbit fast-twitch back and leg muscles as described previously.
Single-channel recordings of rabbit skeletal RyR1 incorporated into planar lipid bilayers were carried out as described previously. Lipid bilayers, consisting of brain tissue phosphatidylethanolamine and phosphatidylserine (1 : 1) in decane (20 mg/mL) were formed across a hole of approximately 200 μm diameter. Thinning of the bilayer was monitored by bilayer capacitance. The basic composition of the cis/trans solution consisted of 300 mM cesium methanesulfonate, 10 mM Tris/Hepes (pH 7.2), 2 mM EGTA, and 1.998 mM CaCl2 ([Ca^2+]free = 10 μM). [Ca^2+]free was calculated using the “Chelator” program (Theo Schoenmaker). Cs^+ was selected as the charge carrier to ensure precise control of free [Ca^2+], to increase the channel conductance, and to avoid any contribution from potassium channels present in the SR membrane. Chloride channels were inhibited by using the impermeant anion methanesulfonate. Incorporation of ion channels was carried out as described by Miller and Racker and confirmed by recording the characteristically high single-channel conductance of RyRs. The trans side was maintained at ground and the cis side was clamped at −30 mV relative to the ground. After addition of the IpTxa to the cis chamber, the single channel data were collected at −30 mV for 2–5 min. […] Recordings were filtered with an 8-pole low-pass Bessel filter at 1 kHz and digitalized through a Digidata 1200 series interface (Axon Instruments). Data acquisition and analysis were done with the Axon Instruments software, pClamp v7.0.
Data were analyzed using the Hill equation described previously:
(1) Psubstate=(Psubstate, max )/[1+(EC50/[IpTxa])^nH] orPo=(Po, max )/[1+(EC50/[IpTxa])^nH], where (Po, max ) is the Po observed at saturating concentrations of IpTxa, EC50 is the IpTxa concentration for which 50% of Po, max is obtained and nH is the Hill coefficient. Also, Psubstate, max is the Psubstate observed at saturating concentrations of IpTxa, EC50 is the IpTxa concentration for which 50% of Psubstate, max is obtained, and nH is the Hill coefficient. The probability of full open state of the channel (Po) was defined as the ratio of the time spent in the open state to the total time exclusive of time spent in the substate. The probability to obtain substate (Psubstate) was calculated as the time spent in the substate divided by a given total recording time. The durations of the substate were obtained by manual positioning of the cursors and constructing all point histograms. Mean duration of substate was measured by total substate time divided by total substate frequencies.
Results are given as means ± SE. Significant differences were analyzed using Student's t-test. Differences were considered to be significant when P < 0.05. The fitting of the data to the graphs were carried out using the software, Origin v7.
To examine how IpTxa modifies RyR1 activity, RyR1 in HSR incorporated in planar lipid bilayers was tested in the presence or absence of synthetic wild-type IpTxa. The chamber solutions for both cis (cytosolic) and trans (luminal) sides included 300 mM cesium methanesulfonate and 10 mM Tris-Hepes (pH 7.2). 10 μM free Ca^2+ was added to the cis side to activate the incorporated RyR1. After an addition of IpTxa to the cis chamber, the single channel gating properties were recorded at a holding potential of −30 mV for over 2 min at each toxin concentration. […] To examine the effects of IpTxa on full open state, we calculated the probability to obtain the full open state (Po) as the time spent in the open state divided by the total time exclusive of the time spent in the substate. The time for recorded Po was in the range of 30 s–2 min. […] The steady-state Po was 0.18 ± 0.02 at 10 μM Ca^2+. […]

T1 sequence (P11716 whole entry): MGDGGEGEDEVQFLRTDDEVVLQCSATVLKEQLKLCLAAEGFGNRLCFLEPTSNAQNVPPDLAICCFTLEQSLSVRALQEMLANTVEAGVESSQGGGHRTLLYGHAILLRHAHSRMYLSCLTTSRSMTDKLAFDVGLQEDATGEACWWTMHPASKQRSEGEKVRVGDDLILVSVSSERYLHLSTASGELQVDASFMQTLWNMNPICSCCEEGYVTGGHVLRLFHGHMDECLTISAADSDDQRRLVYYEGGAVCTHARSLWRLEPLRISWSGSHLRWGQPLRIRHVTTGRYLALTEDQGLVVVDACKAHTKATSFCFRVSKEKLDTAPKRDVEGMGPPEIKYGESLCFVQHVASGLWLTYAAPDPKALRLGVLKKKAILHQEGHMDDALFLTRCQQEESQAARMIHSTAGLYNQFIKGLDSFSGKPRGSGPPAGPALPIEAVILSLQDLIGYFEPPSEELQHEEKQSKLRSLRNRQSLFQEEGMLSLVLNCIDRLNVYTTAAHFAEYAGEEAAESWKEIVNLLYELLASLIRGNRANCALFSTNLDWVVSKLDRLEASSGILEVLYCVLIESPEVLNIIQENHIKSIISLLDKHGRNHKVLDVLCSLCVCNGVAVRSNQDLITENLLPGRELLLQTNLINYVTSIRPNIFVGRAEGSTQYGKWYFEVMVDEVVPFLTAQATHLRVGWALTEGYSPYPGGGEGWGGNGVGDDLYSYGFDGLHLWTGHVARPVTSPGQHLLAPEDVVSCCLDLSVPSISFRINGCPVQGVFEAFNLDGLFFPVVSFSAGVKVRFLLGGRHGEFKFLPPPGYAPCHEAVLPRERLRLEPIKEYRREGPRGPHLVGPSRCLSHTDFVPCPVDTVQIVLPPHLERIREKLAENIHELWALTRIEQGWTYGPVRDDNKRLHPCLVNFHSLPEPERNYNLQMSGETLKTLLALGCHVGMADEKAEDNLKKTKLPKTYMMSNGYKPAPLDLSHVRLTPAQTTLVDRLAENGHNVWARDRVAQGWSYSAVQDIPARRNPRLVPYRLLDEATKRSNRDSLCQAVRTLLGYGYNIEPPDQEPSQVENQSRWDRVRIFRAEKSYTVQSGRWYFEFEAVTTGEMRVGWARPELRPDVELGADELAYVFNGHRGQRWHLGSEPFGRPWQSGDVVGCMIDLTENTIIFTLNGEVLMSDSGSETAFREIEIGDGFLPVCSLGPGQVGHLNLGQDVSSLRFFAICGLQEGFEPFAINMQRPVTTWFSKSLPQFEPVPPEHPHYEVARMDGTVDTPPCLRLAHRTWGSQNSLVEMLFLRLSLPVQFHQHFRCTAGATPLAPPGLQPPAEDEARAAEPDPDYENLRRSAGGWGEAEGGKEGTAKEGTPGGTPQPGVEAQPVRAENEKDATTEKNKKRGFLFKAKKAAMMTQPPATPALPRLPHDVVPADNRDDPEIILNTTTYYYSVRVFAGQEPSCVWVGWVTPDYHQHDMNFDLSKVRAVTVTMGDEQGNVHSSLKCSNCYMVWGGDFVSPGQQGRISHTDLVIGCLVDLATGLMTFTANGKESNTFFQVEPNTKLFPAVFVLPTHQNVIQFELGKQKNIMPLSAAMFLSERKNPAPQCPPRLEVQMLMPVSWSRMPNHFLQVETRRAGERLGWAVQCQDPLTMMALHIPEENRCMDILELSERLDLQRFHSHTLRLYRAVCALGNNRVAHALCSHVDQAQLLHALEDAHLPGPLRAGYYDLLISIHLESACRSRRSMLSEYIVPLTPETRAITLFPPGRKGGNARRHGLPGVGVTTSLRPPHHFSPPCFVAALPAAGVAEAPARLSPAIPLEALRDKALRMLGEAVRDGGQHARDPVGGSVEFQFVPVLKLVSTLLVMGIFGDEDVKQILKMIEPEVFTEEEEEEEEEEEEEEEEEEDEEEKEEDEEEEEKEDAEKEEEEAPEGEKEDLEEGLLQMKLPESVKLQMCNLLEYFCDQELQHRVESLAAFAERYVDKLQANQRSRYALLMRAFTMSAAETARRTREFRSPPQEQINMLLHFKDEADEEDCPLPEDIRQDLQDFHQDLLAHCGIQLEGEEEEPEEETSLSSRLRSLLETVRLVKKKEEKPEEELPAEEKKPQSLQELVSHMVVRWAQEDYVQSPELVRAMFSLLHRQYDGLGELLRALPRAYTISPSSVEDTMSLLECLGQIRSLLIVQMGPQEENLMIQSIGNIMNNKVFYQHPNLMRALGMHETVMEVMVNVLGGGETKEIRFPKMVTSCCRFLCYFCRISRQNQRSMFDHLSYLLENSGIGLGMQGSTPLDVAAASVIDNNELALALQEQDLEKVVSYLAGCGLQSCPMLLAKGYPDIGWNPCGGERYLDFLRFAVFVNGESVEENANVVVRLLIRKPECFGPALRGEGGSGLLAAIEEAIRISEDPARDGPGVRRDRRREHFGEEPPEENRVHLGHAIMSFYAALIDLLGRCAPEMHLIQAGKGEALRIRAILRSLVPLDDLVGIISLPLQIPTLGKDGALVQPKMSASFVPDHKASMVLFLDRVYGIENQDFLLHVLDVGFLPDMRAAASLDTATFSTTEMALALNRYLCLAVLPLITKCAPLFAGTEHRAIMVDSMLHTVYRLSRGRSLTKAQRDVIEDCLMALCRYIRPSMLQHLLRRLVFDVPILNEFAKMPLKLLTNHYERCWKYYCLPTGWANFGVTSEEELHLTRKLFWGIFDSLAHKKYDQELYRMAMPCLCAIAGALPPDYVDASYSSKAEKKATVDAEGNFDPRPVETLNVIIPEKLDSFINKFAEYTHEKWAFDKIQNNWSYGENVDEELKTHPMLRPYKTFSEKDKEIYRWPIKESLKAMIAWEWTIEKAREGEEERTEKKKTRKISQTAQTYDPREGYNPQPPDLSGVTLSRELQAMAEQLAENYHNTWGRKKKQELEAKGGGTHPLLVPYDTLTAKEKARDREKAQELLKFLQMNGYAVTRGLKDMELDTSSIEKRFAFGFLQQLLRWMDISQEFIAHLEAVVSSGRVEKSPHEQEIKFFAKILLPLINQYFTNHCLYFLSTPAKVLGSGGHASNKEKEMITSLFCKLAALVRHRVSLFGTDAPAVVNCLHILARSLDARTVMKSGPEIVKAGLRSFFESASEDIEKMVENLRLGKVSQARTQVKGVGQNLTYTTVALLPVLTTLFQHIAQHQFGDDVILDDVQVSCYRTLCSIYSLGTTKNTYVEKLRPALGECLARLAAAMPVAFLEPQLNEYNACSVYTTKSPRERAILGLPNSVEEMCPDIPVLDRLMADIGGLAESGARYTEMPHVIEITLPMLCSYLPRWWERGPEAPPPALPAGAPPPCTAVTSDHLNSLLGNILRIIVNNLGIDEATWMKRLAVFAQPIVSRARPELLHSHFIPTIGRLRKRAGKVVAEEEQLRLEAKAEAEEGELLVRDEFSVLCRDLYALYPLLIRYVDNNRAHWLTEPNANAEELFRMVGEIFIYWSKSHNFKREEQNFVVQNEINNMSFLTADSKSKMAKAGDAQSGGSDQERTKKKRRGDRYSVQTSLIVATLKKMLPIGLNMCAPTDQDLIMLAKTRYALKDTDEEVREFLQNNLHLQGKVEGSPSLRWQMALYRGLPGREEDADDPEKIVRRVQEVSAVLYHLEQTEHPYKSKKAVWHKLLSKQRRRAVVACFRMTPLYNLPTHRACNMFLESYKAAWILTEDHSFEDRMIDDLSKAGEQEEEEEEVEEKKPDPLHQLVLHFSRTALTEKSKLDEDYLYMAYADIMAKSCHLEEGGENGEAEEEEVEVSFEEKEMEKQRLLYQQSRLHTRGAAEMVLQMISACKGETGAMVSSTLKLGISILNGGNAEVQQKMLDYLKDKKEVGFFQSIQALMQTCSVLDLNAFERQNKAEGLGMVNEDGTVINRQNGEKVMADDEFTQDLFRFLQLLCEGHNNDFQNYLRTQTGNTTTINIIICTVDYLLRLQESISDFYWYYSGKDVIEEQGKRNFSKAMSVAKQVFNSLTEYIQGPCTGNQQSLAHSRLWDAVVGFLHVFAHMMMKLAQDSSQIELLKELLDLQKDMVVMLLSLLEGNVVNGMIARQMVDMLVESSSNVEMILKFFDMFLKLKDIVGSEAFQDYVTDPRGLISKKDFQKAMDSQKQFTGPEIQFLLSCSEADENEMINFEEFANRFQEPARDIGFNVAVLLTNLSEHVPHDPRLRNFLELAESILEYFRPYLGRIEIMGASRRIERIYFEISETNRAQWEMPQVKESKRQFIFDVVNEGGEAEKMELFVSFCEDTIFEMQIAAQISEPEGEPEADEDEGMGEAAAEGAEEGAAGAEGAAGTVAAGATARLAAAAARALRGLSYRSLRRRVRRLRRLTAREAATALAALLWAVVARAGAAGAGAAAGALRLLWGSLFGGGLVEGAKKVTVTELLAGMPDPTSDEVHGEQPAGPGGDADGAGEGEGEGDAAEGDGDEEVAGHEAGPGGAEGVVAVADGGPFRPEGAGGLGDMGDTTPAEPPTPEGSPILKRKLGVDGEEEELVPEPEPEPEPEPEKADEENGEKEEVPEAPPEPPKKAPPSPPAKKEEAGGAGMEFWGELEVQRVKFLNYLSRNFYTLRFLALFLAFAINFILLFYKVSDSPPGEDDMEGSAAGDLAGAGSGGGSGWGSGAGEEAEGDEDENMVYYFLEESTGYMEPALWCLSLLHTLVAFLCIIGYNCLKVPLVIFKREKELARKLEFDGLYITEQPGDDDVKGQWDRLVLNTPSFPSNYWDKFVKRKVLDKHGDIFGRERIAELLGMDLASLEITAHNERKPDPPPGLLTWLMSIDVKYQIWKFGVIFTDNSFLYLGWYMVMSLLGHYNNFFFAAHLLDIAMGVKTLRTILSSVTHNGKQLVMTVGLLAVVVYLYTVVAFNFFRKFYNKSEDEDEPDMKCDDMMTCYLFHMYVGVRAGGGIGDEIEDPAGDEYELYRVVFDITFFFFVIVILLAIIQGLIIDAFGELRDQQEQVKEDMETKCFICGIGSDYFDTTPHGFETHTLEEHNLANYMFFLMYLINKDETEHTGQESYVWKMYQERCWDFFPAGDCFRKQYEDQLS

SMILES	EC50
CC(C)C[C@@H]1NC(=O)[C@H](Cc2c[nH]cn2)NC(=O)[C@@H]2CCCN2C(=O)[C@H](CC(C)C)NC(=O)[C@@H](NC(=O)[C@H](CC(=O)O)NC(=O)CN)CSSC[C@@H]2NC(=O)[C@@H]3CSSC[C@@H](C(=O)N[C@@H](CCCNC(=N)N)C(=O)O)NC(=O)[C@H](CCCNC(=N)N)NC(=O)[C@H](CCCCN)NC(=O)[C@H](CCC(=O)O)NC(=O)[C@H](C)NC(=O)[C@H](CC(N)=O)NC(=O)[C@H]([C@@H](C)O)NC(=O)CNC(=O)[C@H](CCCNC(=N)N)NC(=O)[C@H](CCCNC(=N)N)NC(=O)[C@H](C)NC(=O)[C@H](CSSC[C@H](NC(=O)[C@H](CCCNC(=N)N)NC(=O)[C@H](CCCCN)NC1=O)C(=O)N[C@@H](CCCCN)C(=O)N[C@@H](C)C(=O)N[C@@H](CC(=O)O)C(=O)N[C@@H](CC(N)=O)C(=O)N[C@@H](CC(=O)O)C(=O)N3)NC(=O)[C@H](CCCCN)NC(=O)[C@H](CCCCN)NC(=O)CNC2=O [K22A] (H-GDCLPHLKRCKADNDCCGKKCARRGTNAEKRCR-OH; disulfide 3-17, 10-21, 16-32)	18.5 ± 2.88 nM
CC(C)C[C@@H]1NC(=O)[C@H](Cc2c[nH]cn2)NC(=O)[C@@H]2CCCN2C(=O)[C@H](CC(C)C)NC(=O)[C@@H](NC(=O)[C@H](CC(=O)O)NC(=O)CN)CSSC[C@@H]2NC(=O)[C@@H]3CSSC[C@@H](C(=O)N[C@@H](CCCNC(=N)N)C(=O)O)NC(=O)[C@H](CCCNC(=N)N)NC(=O)[C@H](CCCCN)NC(=O)[C@H](CCC(=O)O)NC(=O)[C@H](C)NC(=O)[C@H](CC(N)=O)NC(=O)[C@H]([C@@H](C)O)NC(=O)CNC(=O)[C@H](CCCNC(=N)N)NC(=O)[C@H](CCCNC(=N)N)NC(=O)[C@H](CCCCN)NC(=O)[C@H](CSSC[C@H](NC(=O)[C@H](C)NC(=O)[C@H](CCCCN)NC1=O)C(=O)N[C@@H](CCCCN)C(=O)N[C@@H](C)C(=O)N[C@@H](CC(=O)O)C(=O)N[C@@H](CC(N)=O)C(=O)N[C@@H](CC(=O)O)C(=O)N3)NC(=O)[C@H](CCCCN)NC(=O)[C@H](CCCCN)NC(=O)CNC2=O [R9A] (H-GDCLPHLKACKADNDCCGKKCKRRGTNAEKRCR-OH; disulfide 3-17, 10-21, 16-32)	19.9 ± 3.16 nM
CC(C)C[C@@H]1NC(=O)[C@H](Cc2c[nH]cn2)NC(=O)[C@@H]2CCCN2C(=O)[C@H](CC(C)C)NC(=O)[C@@H](NC(=O)[C@H](CC(=O)O)NC(=O)CN)CSSC[C@@H]2NC(=O)[C@@H]3CSSC[C@@H](C(=O)N[C@@H](CCCNC(=N)N)C(=O)O)NC(=O)[C@H](CCCNC(=N)N)NC(=O)[C@H](CCCCN)NC(=O)[C@H](CCC(=O)O)NC(=O)[C@H](C)NC(=O)[C@H](CC(N)=O)NC(=O)[C@H]([C@@H](C)O)NC(=O)CNC(=O)[C@H](CCCNC(=N)N)NC(=O)[C@H](C)NC(=O)[C@H](CCCCN)NC(=O)[C@H](CSSC[C@H](NC(=O)[C@H](CCCNC(=N)N)NC(=O)[C@H](CCCCN)NC1=O)C(=O)N[C@@H](CCCCN)C(=O)N[C@@H](C)C(=O)N[C@@H](CC(=O)O)C(=O)N[C@@H](CC(N)=O)C(=O)N[C@@H](CC(=O)O)C(=O)N3)NC(=O)[C@H](CCCCN)NC(=O)[C@H](CCCCN)NC(=O)CNC2=O [R23A] (H-GDCLPHLKRCKADNDCCGKKCKARGTNAEKRCR-OH; disulfide 3-17, 10-21, 16-32)	19.5 ± 9.36 nM
CC(C)C[C@@H]1NC(=O)[C@H](Cc2c[nH]cn2)NC(=O)[C@@H]2CCCN2C(=O)[C@H](CC(C)C)NC(=O)[C@@H](NC(=O)[C@H](CC(=O)O)NC(=O)CN)CSSC[C@@H]2NC(=O)[C@@H]3CSSC[C@@H](C(=O)N[C@@H](CCCNC(=N)N)C(=O)O)NC(=O)[C@H](CCCNC(=N)N)NC(=O)[C@H](CCCCN)NC(=O)[C@H](CCC(=O)O)NC(=O)[C@H](C)NC(=O)[C@H](CC(N)=O)NC(=O)[C@H]([C@@H](C)O)NC(=O)CNC(=O)[C@H](C)NC(=O)[C@H](CCCNC(=N)N)NC(=O)[C@H](CCCCN)NC(=O)[C@H](CSSC[C@H](NC(=O)[C@H](CCCNC(=N)N)NC(=O)[C@H](CCCCN)NC1=O)C(=O)N[C@@H](CCCCN)C(=O)N[C@@H](C)C(=O)N[C@@H](CC(=O)O)C(=O)N[C@@H](CC(N)=O)C(=O)N[C@@H](CC(=O)O)C(=O)N3)NC(=O)[C@H](CCCCN)NC(=O)[C@H](CCCCN)NC(=O)CNC2=O [R24A] (H-GDCLPHLKRCKADNDCCGKKCKRAGTNAEKRCR-OH; disulfide 3-17, 10-21, 16-32)	26 ± 7.01 nM

— publication PMC3192407, “Both Basic and Acidic Amino Acid Residues of IpTxa Are Involved in Triggering Substate of RyR1” (Journal of Biomedicine and Biotechnology, 2011)
